Experimental data reported in patent publication US9927440B2, “Protein engineering” (priority 2009, dated 2018).

Columns and labels:
[1] = Intrinsic reaction rate of IAM-biotin with unprotected cysteine (GSH), iodide absorbance at 226 nm; type: physicochemical; conditions: pH 7.6; for pseudo-first order rate constant (kint): 80 μM IAM-biotin, 800 μM GSH
Method: FIGS. 10A-C show the determination of kint in model compounds and unfolded SN.
The iodoacetyl moiety of IAM-biotin (EZ-Link™ Iodoacetyl-PEG2-Biotin; Pierce; 21334) reacts primarily with free thiolate to form a stable thioether bond. Because thiolate was the predominant reactive species, the reaction rate was dependent on the pKa of cysteine (˜8.6) relative to solution pH (which was set to 7.6). The kint values reported here were only valid for pH 7.6. kint was determined for an unprotected cysteine by reacting IAM-biotin with L-glutathione (GSH) (Sigma; G4251) and monitoring the absorbance of the liberated iodide ion (ϵ226=12,600M^−1 cm^−1 at 226 nm) as function of time. Second-order rate constants for the reaction of IAM-biotin with GSH were measured under pseudo first-order conditions at 25° C., 35° C., 45° C. and 55° C. (80 μM IAM-biotin, 800 μM GSH, 25 mM MOPS, 100 mM KCl and pH 7.6) and analyzed in terms of the Arrhenius equation (see FIG. 10).

[2] = molecular target: T1, E. coli ribose-binding protein (ecRBP) (Escherichia coli, UniProt P02925, A213C/T28W); test: biochemical
T1 construct: made in house; host or cells: cell-free TnT, E. coli BL21 Star (DE3) extract
Method: (§1) The rate of labeling of internal cysteine residues was measured by reacting 30-50 μL of ˜0.1 μM protein sample (i.e., ˜3-5 picomoles of protein) with excess IAM-biotin (1 mM unless otherwise stated) at constant temperature (25 mM MOPS, 100 mM KCl and pH 7.6). 5 μL aliquots were removed at fixed time intervals and quenched by addition of 2 μL 2M β-mercaptoethanol (Sigma; M6250). Following addition of 5 μL LDS-buffer (Invitrogen; NP0007) and heating for 2 min at 85° C., (un)labeled protein species were resolved by SDS-PAGE (Novex 4-12% Bis-Tris Gels; Invitrogen; NP0321). […] For the experiment shown in FIG. 8A, ecRBP variant L62C was modified with 1 mM IAM-biotin at 47.1° C., pH 7.6. […] Streptavidin was used to alter the electrophoretic mobility of the labeled protein (Streptavidin bands indicated by a, b, and c). […] Error bars represent the estimated uncertainty of the integrated band intensities (˜2%). For the experiment shown in FIG. 8B, SN variant L36C was labeled with IAM-biotin at 35.3° C., pH 7.6. […] At 29.3° C., 26.3° C. and 23.3° C., kint and klabel were manipulated by increasing the concentration of IAM-biotin from 1 mM to 3.16 mM.
(§2) The modulation of protein stability by binding of metals, ligands, activators, inhibitors, substrates, nucleic acid or other proteins can be used to measure binding affinities within a GUWO. For a protein with a single binding site, the free energy of ligand binding was described by
(§3) [formula] where P was the binding polynomial, [L] the total ligand concentration, and KD the apparent dissociation constant of the ligand. For proteins with multiple ligand-binding sites, P was expanded as described in Equations 21-36 below.
(§4) By thermodynamic linkage, any change in ΔGU caused predominantly by ligand binding (Scheme 1) is ΔGbind=ΔΔ^LGU=Δ^LGU−Δ^apoGU [20] where Δ^LGU and Δ^apoGU were the stability of the protein in the presence of absence of ligand respectively. Equation 20 was used to obtain apparent KD values from either the ligand dependence of ΔΔGU (by curve fitting), or from a single measurement of ΔΔGU.

[3] = molecular target: T2, E. coli ribose-binding protein (ecRBP) (Escherichia coli, UniProt P02925, L86C/T28W); test: biochemical
T2 construct: made in house; host or cells: cell-free TnT, E. coli BL21 Star (DE3) extract
Method: as §1, §2, §3, §4

[4] = second-order rate constants 25-55 °C

T1 sequence (P02925 other isoform, or with tags, fused parts or gaps T28W/A213C): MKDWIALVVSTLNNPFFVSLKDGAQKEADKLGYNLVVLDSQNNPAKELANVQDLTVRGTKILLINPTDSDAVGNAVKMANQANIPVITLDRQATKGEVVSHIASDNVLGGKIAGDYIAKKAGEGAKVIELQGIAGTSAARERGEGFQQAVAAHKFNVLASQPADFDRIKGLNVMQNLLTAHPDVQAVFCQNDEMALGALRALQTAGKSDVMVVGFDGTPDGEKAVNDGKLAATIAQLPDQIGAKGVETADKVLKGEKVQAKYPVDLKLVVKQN
T2 sequence (P02925 other isoform, or with tags, fused parts or gaps T28W/L86C): as the sequence (P02925 other isoform, or with tags, fused parts or gaps T28W/A213C) above, with L62C, C189A counted along it

Row | Compound | pseudo-first order rate constant (kint) ([1]; 25 °C, 25 mM MOPS, 100 mM KCl) | second order rate constant (k=kint/[GSH]) ([1]; 25 °C) | pseudo-first order rate constant (kint) ([1]; 35 °C) | second order rate constant (k=kint/[GSH]) ([1]; 35 °C) | pseudo-first order rate constant (kint) ([1]; 45 °C) | second order rate constant (k=kint/[GSH]) ([1]; 45 °C) | pseudo-first order rate constant (kint) ([1]; 55 °C) | second order rate constant (k=kint/[GSH]) ([1]; 55 °C) | Arrhenius pre-exponential factor (ln A), IAM-biotin + GSH [1, 4] | Arrhenius slope (−Ea/R), IAM-biotin + GSH [1, 4] | Kd [2] | Kd [3]
1 | O=C(CI)NCCOCCOCCNC(=O)CCCC[C@@H]1SC[C@@H]2NC(=O)N[C@@H]21 [IAM-biotin, EZ-Link™ Iodoacetyl-PEG2-Biotin] | 0.00062 s⁻¹ | 0.78 M⁻¹ s⁻¹ | 0.00016 s⁻¹ | 2.0 M⁻¹ s⁻¹ | 0.0035 s⁻¹ | 4.4 M⁻¹ s⁻¹ | 0.0077 s⁻¹ | 9.6 M⁻¹ s⁻¹ | 27.1±0.5 | −8.2×10^3±0.1×10^3 |  | 
2 | O=C[C@H](O)[C@H](O)[C@H](O)CO [ribose, reference compound] |  |  |  |  |  |  |  |  |  |  | 1.8 ± 0.1 µM | 2.8 ± 0.2 µM
